Source: patent US20250361241A1, “HPK1 INHIBITOR AND MEDICAL USE THEREOF” (Betta Pharmaceuticals Co., Ltd., priority 2022, published 2025)

Assays:
GLK = GLK (Homo sapiens (Human), UniProt Q8IVH8); experiment: GLK kinase assay (1 mM ATP system), ADP-Glo; assay type: biochemical
Procedure: Solution […] The test compound was serially diluted using DMSO to 200 times the detection concentration. […] Centrifuge at 1000×g for 30 seconds and incubate at 25° C. for 15 minutes. • (5) Add ATP and substrate: Add 2 μL of 2×ATP-MBP solution to the 384-well plate and centrifuge at 1000×g for 30 seconds. Seal the plate with a sealing film and incubate at 25° C. for 60 minutes. • (6) Add ADP-Glo reagent: Add 4 μL ADP-Glo reagent (Promega, V9103) to the 384-well plate, centrifuge at 1000×g for 30 seconds, and incubate at 25° C. for 60 minutes. • (7) Detection of luminescent signal: Add 8 μL of luminescent detection reagent (Promega, V9103) to a 384-well plate, centrifuge at 1000×g for 30 seconds, and incubate at 25° C. for 60 minutes. The chemiluminescent signal was read using a BMG microplate reader. • (8) Calculation of percentage inhibition rate: […] See Table 2 for the GLK kinase IC50 data of the example compounds on […].

HPK1 = HPK1 (Homo sapiens (Human), UniProt Q92918); experiment: HPK1 enzyme activity detection (1 mM ATP system), ADP-Glo with MBP substrate, Pharmacological Experiment 2; assay type: biochemical
Procedure: Pharmacological Experiment 2: […] The test compound was serially diluted using DMSO to 200 times the detection concentration. […] Centrifuge at 1000×g for 30 seconds and incubate at 25° C. for 15 minutes. • (5) Adding ATP and substrate: Add 2 μL of 2×ATP-MBP solution to the 384-well plate and centrifuge at 1000×g for 30 seconds. Seal the plate with a sealing film and incubate at 25° C. for 60 minutes. • (6) Add ADP-Glo reagent: Add 4 μL ADP-Glo reagent (Promega, V9103) to the 384-well plate, centrifuge at 1000×g for 30 seconds, and incubate at 25° C. for 60 minutes. • (7) Detection of luminescent signal; Add 8 μL of luminescent detection reagent (Promega, V9103) to a 384-well plate, centrifuge at 1000×g for 30 seconds, and incubate at 25° C. for 60 minutes. The chemiluminescent signal was read using a BMG instrument. • (8) Calculation of percentage inhibition rate: […] See Table 2 for the enzymatic IC 50 data of the example compounds on HPK1.

Sequence of HPK1 (Q92918 whole entry, species assumed): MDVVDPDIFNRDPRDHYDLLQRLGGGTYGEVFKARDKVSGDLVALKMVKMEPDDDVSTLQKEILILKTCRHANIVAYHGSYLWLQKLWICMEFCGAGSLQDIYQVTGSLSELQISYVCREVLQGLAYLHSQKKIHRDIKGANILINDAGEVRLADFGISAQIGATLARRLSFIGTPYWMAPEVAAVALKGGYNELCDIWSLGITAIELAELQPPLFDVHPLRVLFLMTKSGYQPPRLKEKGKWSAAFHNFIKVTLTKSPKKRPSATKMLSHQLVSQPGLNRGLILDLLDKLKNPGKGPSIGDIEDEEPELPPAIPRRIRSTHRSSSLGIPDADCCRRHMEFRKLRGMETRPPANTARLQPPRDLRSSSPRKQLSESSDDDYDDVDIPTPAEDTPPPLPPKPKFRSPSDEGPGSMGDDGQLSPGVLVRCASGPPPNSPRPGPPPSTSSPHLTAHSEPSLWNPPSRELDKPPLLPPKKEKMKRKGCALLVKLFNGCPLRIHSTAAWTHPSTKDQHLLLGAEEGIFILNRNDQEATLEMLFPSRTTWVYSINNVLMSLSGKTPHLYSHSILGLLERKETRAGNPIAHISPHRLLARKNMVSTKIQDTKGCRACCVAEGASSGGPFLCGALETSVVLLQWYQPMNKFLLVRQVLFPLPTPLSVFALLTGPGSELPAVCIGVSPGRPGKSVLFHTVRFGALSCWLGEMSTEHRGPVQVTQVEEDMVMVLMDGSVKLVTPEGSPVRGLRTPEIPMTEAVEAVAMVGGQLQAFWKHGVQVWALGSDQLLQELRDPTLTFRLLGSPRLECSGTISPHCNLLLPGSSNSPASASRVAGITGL
Sequence of GLK (Q8IVH8 whole entry, species assumed): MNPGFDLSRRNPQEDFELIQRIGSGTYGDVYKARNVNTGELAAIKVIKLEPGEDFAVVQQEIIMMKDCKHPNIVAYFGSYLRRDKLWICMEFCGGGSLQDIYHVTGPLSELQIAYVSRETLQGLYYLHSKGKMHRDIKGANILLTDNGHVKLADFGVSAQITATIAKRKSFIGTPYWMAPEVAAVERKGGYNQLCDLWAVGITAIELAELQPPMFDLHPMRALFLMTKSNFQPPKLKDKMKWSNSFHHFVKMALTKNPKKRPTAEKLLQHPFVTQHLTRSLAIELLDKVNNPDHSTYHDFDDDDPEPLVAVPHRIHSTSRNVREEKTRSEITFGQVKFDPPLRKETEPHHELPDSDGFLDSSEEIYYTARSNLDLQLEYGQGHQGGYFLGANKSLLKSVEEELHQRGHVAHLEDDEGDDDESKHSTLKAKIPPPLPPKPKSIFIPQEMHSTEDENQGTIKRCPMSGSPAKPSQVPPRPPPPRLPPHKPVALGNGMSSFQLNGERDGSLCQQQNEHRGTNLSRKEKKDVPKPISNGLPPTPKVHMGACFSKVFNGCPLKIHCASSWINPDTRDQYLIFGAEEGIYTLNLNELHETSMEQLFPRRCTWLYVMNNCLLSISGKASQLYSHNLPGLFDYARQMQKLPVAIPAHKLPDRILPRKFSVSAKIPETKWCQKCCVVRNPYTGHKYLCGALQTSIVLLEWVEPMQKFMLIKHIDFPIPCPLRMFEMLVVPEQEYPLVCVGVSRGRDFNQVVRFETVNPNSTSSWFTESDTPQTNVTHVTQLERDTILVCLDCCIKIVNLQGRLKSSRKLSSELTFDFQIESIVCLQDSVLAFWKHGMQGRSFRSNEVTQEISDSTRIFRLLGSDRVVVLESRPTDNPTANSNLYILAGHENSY

Compound | IC50 (GLK) [nM] | IC50 (HPK1) [nM]
CN(C)C1CC2(CCOCC2)c2ccc(Nc3ccc(-c4cnn5cccnc45)c4c3C(=O)NC4)nc21 (stereo not drawn) [Compound 38] | 232 | 2.92
O=C1NCc2c(-c3cnc4cc(F)ccn34)ccc(Nc3ccc4c(n3)C(N3CC5(COC5)C3)CC43CCOCC3)c21 (stereo not drawn) [Compound 88] | 208 | 5.29
O=C1NCc2c(-c3cnc4cc(F)ccn34)ccc(Nc3ccc4c(n3)C(N3CCOC5(CC5)C3)CC43CCOCC3)c21 (stereo not drawn) [Compound 111] |  | 30.2
O=C1NCc2c(-c3cnc4cc(F)ccn34)ccc(Nc3ccc4c(n3)C(N3CCCCC3)CC43CCOCC3)c21 (stereo not drawn) [Compound 90] | 598 | 5.58
O=C1NCc2c(-c3cnc4cc(F)ccn34)ccc(Nc3ccc4c(n3)C(N3CC(F)C3)CC43CCOCC3)c21 (stereo not drawn) [Compound 67, 7-(7-(3-FLUOROAZETIDINE-1-YL)-2′,3′,5′,6,6′,7-HEXAHYDROSPIRO[B]PYRIDINE-5,4′-PYRAN]-2-YL)AMINO)-4-(7-FLUOROIMIDAZO[1,2-A]PYRIDIN-3-YL)ISOINDOLIN-1-ONE] | 136 | 2.49
CN(C)C1CC2(CCOCC2)c2ccc(Nc3ccc(-c4cnc5c(F)cccn45)c4c3C(=O)NC4)nc21 (stereo not drawn) [Compound 159] |  | 5.41
O=C1NCc2c(-c3cnc4cc(F)c(Cl)cn34)ccc(Nc3ccc4c(n3)CCCC43CCOCC3)c21 [Compound 150] |  | 30.4
7-((2,3,5,6,7′,8′-HEXAHYDRO-6′-H-PYRANO[4,5′-[1,7]NAPHTHYRIDINE]-2′-YL)AMINO)-4-(7-(TRIFLUOROMETHYL)IMIDAZO[1,2-A]PYRIDIN-3-YL)ISOINDOL-1-ONE [Compound 147] |  | 22
CC(=O)N1Cc2nc(Nc3ccc(-c4cnc5cc(F)ccn45)c4c3C(=O)NC4)ccc2C2(CCCCC2)C1 [Compound 145] |  | 38.1
CC(C)NC1CC2(CCOCC2)c2ccc(Nc3ccc(-c4cnc5cc(Cl)ccn45)c4c3C(=O)NC4)nc21 (stereo not drawn) [Compound 142] |  | 4.52
O=C1NCc2c(-c3cnc4cc(F)ccn34)ccc(Nc3ccc4c(n3)C(NCC(F)(F)F)CC43CCOCC3)c21 (stereo not drawn) [Compound 118] |  | 71.1
C[C@H]1CN(C2CC3(CCOCC3)c3ccc(Nc4ccc(-c5cnc6cc(F)ccn56)c5c4C(=O)NC5)nc32)CCO1 (stereo partly drawn) [Compound 97] |  | 7.5
O=C1NCc2c(-c3cnc4cc(F)ccn34)ccc(Nc3ccc4c(n3)C(N3CCC(F)(F)C3)CC43CCOCC3)c21 (stereo not drawn) [Compound 72, 7-((7-(3,3-DIFLUOROPYRROLIDIN-1-YL)-2′,3′,5′6,6′,7-HEXAHYDROSPIRO[B]PYRIDINE-5,4′-PYRAN]-2-YL)AMINO)-4-(7-FLUOROIMIDAZOLE[1,2-A]PYRIDIN-3-YL)ISOINDOL-1-ONE] |  | 143
O=C1NCc2c(-c3cnc4cc(OC(F)F)ccn34)ccc(Nc3ccc4c(n3)C(N3CCC(F)CC3)CC43CCOCC3)c21 (stereo not drawn) [Compound 176] |  | 12.1
CN(C)C1CC2(CCOCC2)c2ccc(Nc3ccc(-c4cnc5cc(OC(F)(F)F)ccn45)c4c3C(=O)NC4)nc21 (stereo not drawn) [Compound 175] |  | 16.8
CC(=O)N1CCN(C2CC3(CCOCC3)c3ccc(Nc4ccc(-c5cnc6cc(F)ccn56)c5c4C(=O)NC5)nc32)CC1 (stereo not drawn) [Compound 92] |  | 75.2
C[C@@H]1CN(C2CC3(CCOCC3)c3ccc(Nc4ccc(-c5cnc6cc(F)ccn56)c5c4C(=O)NC5)nc32)C[C@@H](C)O1 (stereo partly drawn) [Compound 112] |  | 48.7
O=C1NCc2c(-c3cnc4cc(OC(F)F)ccn34)ccc(Nc3ccc4c(n3)C(N3CCOCC3)CC43CCOCC3)c21 (stereo not drawn) [Compound 177, 4-(7-(DIFLUOROMETHOXY)IMIDAZO[1,2-A]PYRIDIN-3-YL)-7-((7-MORPHOLINE-2′,3′,5′,6,6′,7-HEXAHVDROSPIRO[B]PYRIDIN-54′-PYRAN]-2-YL)AMINO)ISOINDOL-1-ONE] |  | 102
C[C@@H]1CN(C2CC3(CCOCC3)c3ccc(Nc4ccc(-c5cnc6cc(F)ccn56)c5c4C(=O)NC5)nc32)C[C@H](C)O1 (stereo partly drawn) [Compound 113] |  | 6.21
O=C1NCc2c(-c3cnc4cc(F)ccn34)ccc(Nc3ccc4c(n3)C(N3CCNCC3)CC43CCOCC3)c21 (stereo not drawn) [Compound 99] |  | 171
CN(C)C1CCC2(CCOCC2)c2ccc(Nc3ccc(-c4cnc5cc(Cl)ccn45)c4c3C(=O)NC4)nc21 (stereo not drawn) [Compound 31] |  | 4.53

Compound | IC50 (GLK) [nM] | IC50 (HPK1) [nM]
Cc1cc(Nc2ccc(-c3cnc4cc(F)ccn34)c3c2C(=O)NC3)nc2c1C1(CCOCC1)C[C@H]2N(C)C [Compound 28, (R)-7-((7-(DIMETHYLAMINO)-4-METHYL-2′,3′,5′,6,6′,7-HEXAHYDROSPIRO[B]PYRIDIN-5,4′-PYRAN]-2-YL)AMINO)-4-(7-FLUOROIMIDAZO[1,2-A]PYRIDIN-3-YL)ISOINDOLIN-1-ONE] |  | 1.27
CN(CC(F)F)C1CC2(CCOCC2)c2ccc(Nc3ccc(-c4cnc5cc(F)ccn45)c4c3C(=O)NC4)nc21 (stereo not drawn) [Compound 114] |  | 92.5
C#CCN1Cc2nc(Nc3ccc(-c4cnc5cc(F)ccn45)c4c3C(=O)NC4)ccc2C2(CCOCC2)C1 [Compound 156] |  | 38.7
CC1(C)CN(C2CC3(CCOCC3)c3ccc(Nc4ccc(-c5cnc6cc(F)ccn56)c5c4C(=O)NC5)nc32)CCO1 (stereo not drawn) [Compound 96] |  | 72.5
4-(8-FLUORO-7-METHYLIMIDAZO[1,2-A]PYRIDIN-3-YL)-7-((2,3,5,6,7′,8′-HEXAHYDRO-6′H-SPIRO[PYRAN-4, 5′-[1,7]NAPHTHYRIDINE]-2′-YL)AMINO)ISOINDOL-1-ONE [Compound 149] |  | 4.42
O=C1N=Cc2c(-c3cnc4cc(Cl)ccn34)ccc(Nc3ccc4c(n3)CNCC43CC3)c21 [Compound 152, 4-(7-CHLOROIMIDAZO[1,2-A]PYRIDIN-3-YL)-7-((7′,8′-DIHYDRO-6′H-SPIRO[CYCLOPROPANE-1,5′-[1,7]NAPHTHYRIDINE]-2′-YL)AMINO)ISOINDOL-1-ONE] |  | 14.4
CN(C)C1CC2(CCOCC2)c2ccc(Nc3ccc(-c4cnc5ccc(F)cn45)c4c3C(=O)NC4)nc21 (stereo not drawn) [Compound 162] |  | 18.6
CN(C)C1CC2(CCOCC2)c2ccc(Nc3ccc(-c4cnc5cc(O)ccn45)c4c3C(=O)NC4)nc21 (stereo not drawn) [Compound 171] |  | 35
Cc1cc(Nc2cnc(-c3ccnc4c3ccn4C)c3c2C(=O)NC3)nc2c1C1(CCOCC1)CC2N(C)C (stereo not drawn) [Compound 30] |  | 4.22
C#CCN1Cc2nc(Nc3ccc(-c4cnc5cc(F)ccn45)c4c3C(=O)NC4)ccc2C2(CCOCC2)C1 [Compound 155] |  | 243
COc1ccn2c(-c3ccc(Nc4ccc5c(n4)CCCC54CCOCC4)c4c3CNC4=O)cnc2c1 [Compound 148] |  | 21.8
CN(C)C1CCC2(CCOCC2)c2ccc(Nc3ccc(-c4cnn5cccnc45)c4c3C(=O)NC4)nc21 (stereo not drawn) [Compound 45] |  | 3.08
CC(C)c1ccn2c(-c3ccc(Nc4ccc5c(n4)C(N(C)C)CC54CCOCC4)c4c3CNC4=O)cnc2c1 (stereo not drawn) [Compound 163, 7-((7-(DIMETHYLAMINO)-2′,3′,5′,6,6′,7-HEXAHYDROSPIRO[CYCLOPENTANE[B]PYRIDINE-5,4′-PYRAN]-2-YL)AMINO)-4-(7-ISOPROPYLIMIDAZO[1,2-A]PYRIDIN-3-YL)ISOINDOL-1-ONE] |  | 25.3
CN1Cc2nc(Nc3ccc(-c4cnc5cc(F)ccn45)c4c3C(=O)NC4)ccc2C2(CCOCC2)C1 [Compound 100, 4-(7-FLUOROIMIDAZO[1,2-A]PYRIDIN-3-YL)-7-((7′-(METHYL-D3)-2,3,5,6,7′,8′-HEXAHYDRO-6′H-SPIRO[PYRAN-4,5′-[1,7]NAPHTHYRIDINE]-2′-YL)AMINO)ISOINDOL-1-ONE] |  | 3.1
CN(C)C1CC2(CCOCC2)c2ccc(Nc3ccc(-c4cnc5n4CCCC5)c4c3C(=O)NC4)nc21 (stereo not drawn) [Compound 166, 7-((7-(DIMETHYLAMINO)-2′,3′,5′,6,6′,7-HEXAHYDROSPIRO[CYCLOPENTANE[B]PYRIDINE-5,4′-PYRAN]-2-YL)AMINO)-4-(5,6,7,8-TETRAHYDROIMIDAZO[1,2-A]PYRIDIN-3-YL)ISOINDOL-1-ONE] |  | 25.7
COc1ccn2c(-c3ccc(Nc4ccc5c(n4)C(N(C)C)CC54CCOCC4)c4c3CNC4=O)cnc2c1 (stereo not drawn) [Compound 170] |  | 6.88
O=C1NCc2c(-c3cnc4cc(F)ccn34)ccc(Nc3ccc4c(n3)C(N3C[C@H]5C[C@@H]3CO5)CC43CCOCC3)c21 (stereo partly drawn) [Compound 143] |  | 3.51
O=C1NCc2c(-c3cnc4cc(F)ccn34)ccc(Nc3ccc4c(n3)C(N3CC5CCC(C3)O5)CC43CCOCC3)c21 (stereo not drawn) [Compound 116] |  | 79.8
CC(C)CNC1CC2(CCOCC2)c2ccc(Nc3ccc(-c4cnc5cc(F)ccn45)c4c3C(=O)NC4)nc21 (stereo not drawn) [Compound 141] |  | 3.07
CC1(O)CCN(C2CC3(CCOCC3)c3ccc(Nc4ccc(-c5cnc6cc(F)ccn56)c5c4C(=O)NC5)nc32)CC1 (stereo not drawn) [Compound 95] |  | 6.36
